# In patent US20180179210A1, “Inhibitors of the TEC Kinase Enzyme Family” (Pharmascience Inc., priority 2015, published 2018):
# Legend:
# [1] = tested on: TMD-8 human activated B cell diffuse large B cell lymphoma cells; experiment: TMD-8 survival assay; assay type: cell-based; conditions: TMD8, TMD-8 cells, 72 h treatment, Cell Titer-Glo
# Experimental: BTK inhibitors affect the survival of B-cell lymphomas. TMD-8 human activated B cell diffuse large B cell lymphoma cells were seeded in 96-well plates at a density of 20,000 cells/well in HyClone RPMI supplemented with 10% FBS (Fisher)/1% Penicillin/Streptomycin (HyClone) and incubated at 37° C., 5% CO2. Cells were treated in triplicate with 1,000 nM or 100 nM curves of compounds for 72 h. Cell survival was measured by Cell Titer-Glo Luminescent Assay (Promega). EC50 values (50% proliferation in the presence of compound as compared to vehicle treated controls) were calculated from dose response compound curves using GraphPad Prism Software.
# Splenocytes = experiment: Splenic cell proliferation assay (anti-IgM stimulated); assay type: cell-based; conditions: Splenocyte; CD1 mouse splenocytes, 1 h pre-treatment, 2.5 ug/ml anti-IgM F(ab')2 for 72 h, Cell Titer-Glo; read-out: EC50 (inhibition of splenic cell proliferation)
# Experimental: Proliferation of splenocytes in response to anti-IgM can be blocked by inhibition of Btk.
# Splenocytes were obtained from 6 week old male CD1 mice (Charles River Laboratories Inc.). Mouse spleens were manually disrupted in PBS and filtered using a 70 um cell strainer followed by ammonium chloride red blood cell lysis. Cells were washed, resuspended in Splenocyte Medium (HyClone RPMI supplemented with 10% heat-inactivated FBS, 0.5× non-essential amino acids, 10 mM HEPES, 50 uM beta mercaptoethanol) and incubated at 37° C., 5% CO2 for 2 h to remove adherent cells. Suspension cells were seeded in 96 well plates at 50,000 cells per well and incubated at 37° C., 5% CO2 for 1 h. Splenocytes were pre-treated in triplicate with 10,000 nM curves of Formula 1 compounds for 1 h, followed by stimulation of cell proliferation with 2.5 ug/ml anti-IgM F(ab′)2 (Jackson ImmunoResearch) for 72 h. Cell proliferation was measured by Cell Titer-Glo Luminescent Assay (Promega). EC50 values (50% proliferation in the presence of compound as compared to vehicle treated controls) were calculated from dose response compound curves using GraphPad Prism Software EC50 values are reported in Table 3: […]
# human BTK kinase (hBTK) = molecular target: T1, human BTK kinase (hBTK) (Homo sapiens, UniProt Q06187); experiment: BTK kinase inhibition assay (Kinase Profiler radiometric protein kinase assay, Eurofins); assay type: biochemical; conditions: radiometric [γ-33P-ATP] assay, 40 minutes at room temperature, 250 μM substrate
# T1 construct: purchased Eurofins Pharma Discovery Services UK Limited (contract assay, Kinase Profiler)
# Experimental: In vitro potency of selected compound was defined against human BTK kinase (hBTK) using Kinase Profiler radiometric protein kinase assays performed at Eurofins Pharma Discovery Services UK Limited.
# hBTK kinase is diluted in buffer and all compounds were prepared to 50× final assay concentration in 100% DMSO. This working stock of the compound was added to the assay well as the first component in the reaction, followed by the remaining components as detailed in the assay protocol listed above. The reaction was initiated by the addition of the MgATP mix. The kinase reaction was performed at room temperature for 40 minutes in presence of 250 μM substrate, 10 mM MgAcetate, [γ-33P-ATP] (specific activity approx. 500 cpm/pmol, concentration as required) and variable test article concentrations. The ATP concentrations in the assays were with 15 μM of the apparent. The reaction was stopped by the addition of 3% phosphoric acid solution. 10 μL of the reaction is then spotted onto a P30 filtermat and washed three times for 5 minutes in 75 mM phosphoric acid and once in methanol prior to drying and scintillation counting. In addition positive control wells contain all components of the reaction, except the compound of interest; however, DMSO (at a final concentration of 2%) were included in these wells to control for solvent effects as well as blank wells contain all components of the reaction, with a reference inhibitor replacing the compound of interest. This abolishes kinase activity and establishes the base-line (0% kinase activity remaining).
# T1 sequence (Q06187 whole entry): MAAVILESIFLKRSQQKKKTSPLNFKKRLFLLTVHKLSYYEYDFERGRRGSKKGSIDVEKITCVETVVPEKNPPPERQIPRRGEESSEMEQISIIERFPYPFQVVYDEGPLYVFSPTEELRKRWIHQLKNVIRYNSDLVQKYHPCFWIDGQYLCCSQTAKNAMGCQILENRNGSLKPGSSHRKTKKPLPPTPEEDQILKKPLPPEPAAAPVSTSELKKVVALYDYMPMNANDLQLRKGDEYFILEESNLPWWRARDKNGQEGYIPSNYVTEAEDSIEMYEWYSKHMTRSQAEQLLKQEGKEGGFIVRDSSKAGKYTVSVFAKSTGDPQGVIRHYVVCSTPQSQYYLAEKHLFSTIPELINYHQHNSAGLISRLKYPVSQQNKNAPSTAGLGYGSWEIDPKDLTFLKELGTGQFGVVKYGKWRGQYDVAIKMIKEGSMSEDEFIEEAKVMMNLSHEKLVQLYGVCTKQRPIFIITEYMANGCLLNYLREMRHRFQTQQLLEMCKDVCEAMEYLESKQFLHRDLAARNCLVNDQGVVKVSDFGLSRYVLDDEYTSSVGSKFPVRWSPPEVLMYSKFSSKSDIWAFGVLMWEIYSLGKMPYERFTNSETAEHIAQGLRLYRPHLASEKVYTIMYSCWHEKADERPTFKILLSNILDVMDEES
SMILES,IC50 (human BTK kinase (hBTK)) [µM],EC50 [1] [µM],EC50 (Splenocytes) [µM]
Cc1ncc(COc2cc(F)cc(Oc3ccc(-c4nn(C[C@H]5CCCN5C#N)c5ncnc(N)c45)cc3)c2)cn1 [Compound 1],0.076,0.0347,0.0122
Cc1ncc(COc2cc(F)cc(Oc3ccc(-c4nn(C[C@H]5CCCN5C(=O)C5=CCCC5)c5ncnc(N)c45)cc3)c2)cn1 [Compound 2],0.119,> 0.1,> 0.1
C/C=C/C(=O)N1CCC[C@@H]1Cn1nc(-c2ccc(Oc3cc(F)cc(OCc4cnc(C)nc4)c3)cc2)c2c(N)ncnc21 [Compound 3],0.129,0.0453,0.0128
C=C(C)C(=O)N1CCC[C@@H]1Cn1nc(-c2ccc(Oc3cc(F)cc(OCc4cnc(C)nc4)c3)cc2)c2c(N)ncnc21 [Compound 4],0.125,> 0.1,> 0.1
CC#CC(=O)N1CCC[C@@H]1Cn1nc(-c2ccc(Oc3cc(F)cc(OCc4cnc(C)nc4)c3)cc2)c2c(N)ncnc21 [Compound 5],0.126,0.0488,0.0078
C=C(F)C(=O)N1CCC[C@@H]1Cn1nc(-c2ccc(Oc3cc(F)cc(OCc4cnc(C)nc4)c3)cc2)c2c(N)ncnc21 [Compound 6],0.055,0.0361,0.0115
C=C(C)C(=O)N1CCC[C@@H](n2nc(-c3ccc(Oc4cc(F)cc(OCc5cnc(C)nc5)c4)cc3)c3c(N)ncnc32)C1 [Compound 7],0.016,> 0.1,0.0487
Cc1ncc(COc2cc(F)cc(Oc3ccc(-c4nn(C[C@H]5CCCN5C(=O)/C=C/CN(C)C)c5ncnc(N)c45)cc3)c2)cn1 [Compound 9],0.04,0.0187,0.0064
C#CC(=O)N1CCC[C@@H]1Cn1nc(-c2ccc(Oc3cc(F)cc(OCc4cnc(C)nc4)c3)cc2)c2c(N)ncnc21 [Compound 13],0.035,0.0793,0.0487
C=CC(=O)N1CCC[C@@H]1Cn1nc(-c2ccc(Oc3cc(F)cc(OCc4cnc(C)nc4)c3)cc2)c2c(N)ncnc21 [Compound 14],0.025,0.0138,0.0025
Cc1ncc(COc2cc(F)cc(Oc3ccc(-c4nn(C[C@H]5CCCN5C(=O)C5=CCC5)c5ncnc(N)c45)cc3)c2)cn1 [Compound 15],0.053,0.0561,0.0087
CC#CC(=O)N1CC[C@@H](n2nc(-c3ccc(Oc4cc(F)cc(OCc5cnc(C)nc5)c4)cc3)c3c(N)ncnc32)C1 [Compound 17],0.019,0.0145,0.0069
C=C(F)C(=O)N1CC[C@@H](n2nc(-c3ccc(Oc4cc(F)cc(OCc5cnc(C)nc5)c4)cc3)c3c(N)ncnc32)C1 [Compound 18],0.014,0.0144,0.0058
C=CS(=O)(=O)N1CCC[C@@H](n2nc(-c3ccc(Oc4cc(F)cc(OCc5cnc(C)nc5)c4)cc3)c3c(N)ncnc32)C1 [Compound 21],0.013,0.0645,0.0329
CC#CC(=O)N1CC(Cn2nc(-c3ccc(Oc4cc(F)cc(OCc5cnc(C)nc5)c4)cc3)c3c(N)ncnc32)C1 [Compound 24],0.026,0.0206,0.0108
C=CC(=O)N1CCC(n2nc(-c3ccc(Oc4cc(F)cc(OCc5cnc(C)nc5)c4)cc3)c3c(N)ncnc32)CC1 [Compound 25],0.017,0.0198,0.0043
CC#CC(=O)N1CCC(n2nc(-c3ccc(Oc4cc(F)cc(OCc5cnc(C)nc5)c4)cc3)c3c(N)ncnc32)CC1 [Compound 26],0.024,0.0181,0.0046
CC#CC(=O)N[C@H]1C[C@@H](n2nc(-c3ccc(Oc4cc(F)cc(OCc5cnc(C)nc5)c4)cc3)c3c(N)ncnc32)C1 [Compound 28],0.013,0.0084,0.0011
Cc1ncc(COc2cc(F)cc(Oc3ccc(-c4nn(C5CCN(C#N)CC5)c5ncnc(N)c45)cc3)c2)cn1 [Compound 33],–,> 0.1,0.0473
C=CC(=O)N1CC2(CC(n3nc(-c4ccc(Oc5cc(F)cc(OCc6cnc(C)nc6)c5)cc4)c4c(N)ncnc43)C2)C1 [Compound 34],–,–,0.0015
C=C(F)C(=O)N[C@H]1C[C@@H](n2nc(-c3ccc(Oc4cc(F)cc(OCc5cnc(C)nc5)c4)cc3)c3c(N)ncnc32)C1 [Compound 35],–,–,0.001

# More lines, in order of falling IC50 (human BTK kinase (hBTK)), values ahead:
IC50 (human BTK kinase (hBTK)) [µM],SMILES,EC50 [1] [µM],EC50 (Splenocytes) [µM]
0.011,Cc1ncc(COc2cc(F)cc(Oc3ccc(-c4nn([C@@H]5CCCN(C#N)C5)c5ncnc(N)c45)cc3)c2)cn1 [Compound 8],0.0135,0.0046
0.01,CC#CC(=O)N1CCC[C@@H](n2nc(-c3ccc(Oc4cc(F)cc(OCc5cnc(C)nc5)c4)cc3)c3c(N)ncnc32)C1 [Compound 11],0.0131,0.0015
0.01,C=CC(=O)N(C)[C@H]1C[C@@H](n2nc(-c3ccc(Oc4cc(F)cc(OCc5cnc(C)nc5)c4)cc3)c3c(N)ncnc32)C1 [Compound 31],0.0089,0.0014
0.009,C=CC(=O)N1CC(Cn2nc(-c3ccc(Oc4cc(F)cc(OCc5cnc(C)nc5)c4)cc3)c3c(N)ncnc32)C1 [Compound 23],0.0139,0.0049
0.009,CC#CC(=O)N[C@H]1CC[C@@H](n2nc(-c3ccc(Oc4cc(F)cc(OCc5cnc(C)nc5)c4)cc3)c3c(N)ncnc32)CC1 [Compound 30],0.0051,0.001
0.008,C#CC(=O)N1CCC[C@@H](n2nc(-c3ccc(Oc4cc(F)cc(OCc5cnc(C)nc5)c4)cc3)c3c(N)ncnc32)C1 [Compound 10],0.0755,0.0098
0.008,C=CC(=O)N[C@H]1CC[C@@H](n2nc(-c3ccc(Oc4cc(F)cc(OCc5cnc(C)nc5)c4)cc3)c3c(N)ncnc32)CC1 [Compound 29],0.0066,0.001
0.008,CC#CC(=O)N(C)[C@H]1C[C@@H](n2nc(-c3ccc(Oc4cc(F)cc(OCc5cnc(C)nc5)c4)cc3)c3c(N)ncnc32)C1 [Compound 32],0.0085,0.0015
0.007,Cc1ncc(COc2cc(F)cc(Oc3ccc(-c4nn([C@@H]5CCCN(C(=O)/C=C/CN(C)C)C5)c5ncnc(N)c45)cc3)c2)cn1 [Compound 16],0.0121,0.0041
0.007,C=CS(=O)(=O)N1CC[C@@H](n2nc(-c3ccc(Oc4cc(F)cc(OCc5cnc(C)nc5)c4)cc3)c3c(N)ncnc32)C1 [Compound 19],0.0533,0.0134
0.006,C=CC(=O)N1CCC[C@@H](n2nc(-c3ccc(Oc4cc(F)cc(OCc5cnc(C)nc5)c4)cc3)c3c(N)ncnc32)C1 [Compound 12],0.0165,0.0031
0.006,C=C(F)C(=O)N1CCC[C@@H](n2nc(-c3ccc(Oc4cc(F)cc(OCc5cnc(C)nc5)c4)cc3)c3c(N)ncnc32)C1 [Compound 20],0.0086,0.002
0.006,C=CC(=O)N1CC[C@@H](n2nc(-c3ccc(Oc4cc(F)cc(OCc5cnc(C)nc5)c4)cc3)c3c(N)ncnc32)C1 [Compound 22],0.0134,0.0027
